Reference: paper PMC4583543, “Development and Validation of a Novel Leishmania donovani Screening Cascade for High-Throughput Screening Using a Novel Axenic Assay with High Predictivity of Leishmanicidal Intracellular Activity” (PLoS Neglected Tropical Diseases, 2015)
Like-named read-outs stand apart in the source and are kept apart here.

Assays:
[1] = tested on: HepG2 cells; test: HepG2 assay (mammalian counterscreen, resazurin); format: cell-based, human; conditions: reference compound panel, mean (standard deviation), 72 h; for EC50: Homo sapiens, HepG2, read-out: HepG2 (potency, pEC50) (converted)
Procedure: Compounds were dispensed into 384-well assay plates by acoustic dispensing (LabCyte ECHO). […] Potencies are reported as pEC50 (-LOG(EC50[M])). All data was processed using IDBS ActivityBase. […] For compounds with low activity and poor definition of the curve top, B was fixed to 100. For the determination of the reference compound panel potency, all experiments were carried out with a minimum of three independent repeats. The assay conditions are described previously.

[2] = tested on: LdBOB axenic amastigote-like cells; test: Novel (cidal) axenic amastigote assay, BacTiter-Glo read-out; format: cell-based, Leishmania donovani; conditions: for EC50: Leishmania donovani; for Novel (axenic assay potency, pEC50): reference compound panel, mean (standard deviation), minimum three independent repeats, top concentration 50 μM, pEC50 = -LOG(EC50[M]); for activity in the initial HTS assay: single concentration screen at 25 μM
Source text: Leishmania donovani BOB cells (LdBOB) used in this study are a cloned line from strain MHOM/SD/62/1S-CL2 [13]. Cultures were maintained as described previously. Compounds were dispensed into 384-well assay plates by acoustic dispensing (LabCyte ECHO). […] Potencies are reported as pEC50 (-LOG(EC50[M])). All data was processed using IDBS ActivityBase. […] For compounds with low activity and poor definition of the curve top, B was fixed to 100. For the determination of the reference compound panel potency, all experiments were carried out with a minimum of three independent repeats. Test compounds were pre-dispensed into white 384 well plates (Corning). For library screens one compound per well was tested at the indicated final concentration. […] DMSO, zero percent effect control: cells at starting concentration. The zero percent effect control wells are left empty during the course of the assay. […] The assay volume is 25 μl / well. […] Plates were then sealed with clear film and relative luminescence was detected using a plate reader (Victor 3) from Perkin Elmer or PHERAstar FS from BMG LABTECH, with 0.5 s detection time per well).

[3] = tested on: eGFP expressing LdBOB amastigote-like cells in PMA differentiated THP-1 cells; test: Intramacrophage (intracellular, INMAC) assay; format: cell-based, Leishmania donovani; conditions: for EC50: Leishmania donovani
Procedure: (§1) Compounds were dispensed into 384-well assay plates by acoustic dispensing (LabCyte ECHO). […] Potencies are reported as pEC50 (-LOG(EC50[M])).
(§2) All data was processed using IDBS ActivityBase. […] Potency plates were normalised to DMSO control (0% effect) and 2μM amphotericin B control (100% effect). […] For compounds with low activity and poor definition of the curve top, B was fixed to 100. For the determination of the reference compound panel potency, all experiments were carried out with a minimum of three independent repeats.
(§3) The assay conditions are described previously. Briefly PMA differentiated THP-1 cells were infected overnight with eGFP expressing LdBOB amastigote-like cells at a multiplicity of infection of 5. Next, any remaining free amastigote-like cells are removed and compounds are added. The microscopy-based read-out is done after a four day compound incubation.

[4] = tested on: THP-1 cells; test: THP-1 host cell toxicity in the intramacrophage assay; format: cell-based, human; conditions: for EC50: Homo sapiens, THP-1
Procedure: as §1, §2, §3

[5] = read-out: Novel (axenic assay potency, pEC50) (converted)
[6] = THP-1, 96 h, reference compound panel, mean (standard deviation), minimum three independent repeats, four day incubation, read-out: Intramacrophage (potency, pEC50) (converted)
[7] = reference compound panel, mean (standard deviation), host cell toxicity, read-out: THP-1 (potency, pEC50) (converted)
[8] = THP-1, DOS library compounds, dose response, read-out: INMAC (intracellular) pEC50 (converted)
[9] = reference compound panel, mean (standard deviation), minimum three independent repeats, four day incubation
[10] = reference compound panel, mean (standard deviation), host cell toxicity
[11] = DOS library compounds, ten-point dose response, read-out: cAX pEC50 (converted)
[12] = DOS library compounds, dose response, read-out: THP1 pEC50 (converted)

| SMILES | EC50 [1] | EC50 [2, 5] | EC50 [3, 6] | EC50 [4, 7] | EC50 [3, 8] | EC50 [2, 11] | EC50 [4, 12] | further results |
| --- | --- | --- | --- | --- | --- | --- | --- | --- |
| CC1=CC(=O)c2ccccc2C1=O [Menadione] | 3.47 µM | 10.2 µM | > 34.7 µM | 33.1 µM | – | – | – | – |
| NCCCC(O)(P(=O)(O)O)P(=O)(O)O [Alendronic acid] | > 50.1 µM | > 50.1 µM | > 34.7 µM | > 34.7 µM | – | – | – | – |
| CCCNC(=O)N1[C@H](C#N)[C@H](c2ccc(-c3cccc(OC)c3)cc2)[C@H]1CO [BRD6650 SSS stereoisomer] | – | – | – | – | 20 µM | – | – | – |
| C=CC(C)(C)c1cc(/C=C/C(=O)c2ccc(O)cc2)c(OC)cc1O [Licochalcone A] | – | – | – | – | – | – | – | HepG2 (potency, pEC50) [1]: 4.44 (0.09); Novel (axenic assay potency, pEC50) [2]: 4.67 (0.15); Intramacrophage (potency, pEC50) [3, 9]: 4.65 (0.17); THP-1 (potency, pEC50) [4, 10]: 4.46 (0.01) |
| CC(C)NC(=O)N1[C@H](C#N)[C@H](c2ccc(-c3ccc(F)cc3)cc2)[C@@H]1CO [BRD3486] | – | – | – | – | 6.31 µM | 2 µM | 10 µM | – |
| COc1ccc2cc3[n+](cc2c1OC)CCc1cc2c(cc1-3)OCO2 [Berberine] | 33.9 µM | 9.33 µM | 16.2 µM | > 34.7 µM | – | – | – | – |
| CCCNC(=O)N1[C@H](C#N)[C@H](c2ccc(C3=CCCCC3)cc2)[C@@H]1CO [BRD5744] | – | – | – | – | 2 µM | 0.794 µM | > 50.1 µM | – |
| CCCNC(=O)N1[C@H](CO)[C@H](c2ccc(-c3cccc(OC)c3)cc2)[C@@H]1C#N [BRD6650 SRR stereoisomer] | – | – | – | – | 31.6 µM | – | – | – |
| CCCNC(=O)N1[C@H](CO)[C@@H](c2ccc(-c3cccc(OC)c3)cc2)[C@@H]1C#N [BRD6650 SSR stereoisomer] | – | – | – | – | 10 µM | – | – | – |
| Cc1ccc(C(=O)Nc2ccc(S(=O)(=O)O)c3cc(S(=O)(=O)O)cc(S(=O)(=O)O)c23)cc1NC(=O)c1cccc(NC(=O)Nc2cccc(C(=O)Nc3cc(C(=O)Nc4ccc(S(=O)(=O)O)c5cc(S(=O)(=O)O)cc(S(=O)(=O)O)c45)ccc3C)c2)c1 [Suramin] | > 50.1 µM | > 50.1 µM | > 34.7 µM | > 34.7 µM | – | – | – | – |
| CCCCCCCCCCCCCCCCOP(=O)([O-])OCC[N+](C)(C)C [Miltefosine] | > 50.1 µM | 31.6 µM | 0.794 µM | > 34.7 µM | – | – | – | potency difference, intracellular assay relative to novel axenic assay ([3]; more active in the intracellular assay): around ten-fold |
| CCCNC(=O)N1[C@H](C#N)[C@@H](c2ccc(-c3cccc(OC)c3)cc2)[C@H]1CO [BRD6650 SRS stereoisomer] | – | – | – | – | 20 µM | – | – | – |
| NC[C@@H]1O[C@H](O[C@H]2[C@@H](O)[C@H](O[C@@H]3[C@@H](O)[C@H](N)C[C@H](N)[C@H]3O[C@H]3O[C@H](CO)[C@@H](O)[C@H](O)[C@H]3N)O[C@@H]2CO)[C@H](N)[C@@H](O)[C@@H]1O [Paromomycin] | > 50.1 µM | > 50.1 µM | > 34.7 µM | > 34.7 µM | – | – | – | – |
| N=C(N)c1ccc(OCCCCCOc2ccc(C(=N)N)cc2)cc1 [Pentamidine] | 2.82 µM | 8.71 µM | 15.5 µM | > 34.7 µM | – | – | – | – |
| C[C@@H]1[C@H](O)[C@@H](C)/C=C/C=C/CC/C=C/C=C/C=C/C=C/C(O[C@H]2O[C@H](C)[C@@H](O)[C@H](N)[C@@H]2O)CC2O[C@](O)(CC(O)C(O)CCC(O)CC(O)CC(O)CC(=O)O[C@H]1C)CC(O)C2C(=O)O (stereo partly shown) [Nystatin] | – | – | – | – | – | – | – | HepG2 (potency, pEC50) [1]: < 4.3; Novel (axenic assay potency, pEC50) [2]: 5.19 (0.21); Intramacrophage (potency, pEC50) [3, 9]: 4.68 (0.5); THP-1 (potency, pEC50) [4, 10]: < 4.46 |
| N=C(N)c1ccc(/N=N/Nc2ccc(C(=N)N)cc2)cc1 [Diminazene] | > 50.1 µM | 11.7 µM | > 34.7 µM | > 34.7 µM | – | – | – | – |

| SMILES | EC50 [1] | EC50 [2, 5] | EC50 [3, 6] | EC50 [4, 7] | EC50 [3, 8] | EC50 [2, 11] | EC50 [4, 12] | further results |
| --- | --- | --- | --- | --- | --- | --- | --- | --- |
| CCCNC(=O)N1[C@H](C#N)[C@H](c2ccccc2-c2ccc(C)cc2)[C@@H]1CO [BRD4332] | – | – | – | – | 6.31 µM | 0.631 µM | > 50.1 µM | – |
| CCCNC(=O)N1[C@H](C#N)[C@H](c2ccc(C#Cc3cccc(F)c3)cc2)[C@@H]1CO [BRD0645] | – | – | – | – | 3.98 µM | 0.794 µM | > 50.1 µM | – |
| CCCNC(=O)N1[C@H](C#N)[C@@H](c2ccc(-c3cccc(OC)c3)cc2)[C@@H]1CO [BRD6650 RRS stereoisomer] | – | – | – | – | 15.8 µM | – | – | – |
| NC(=O)c1cnccn1 [Pyrazinamide] | > 50.1 µM | > 50.1 µM | > 34.7 µM | > 34.7 µM | – | – | – | – |
| O=c1cc(-c2ccc(O)c(O)c2)oc2cc(O)cc(O)c12 [Luteolin] | 24.5 µM | 46.8 µM | 28.2 µM | 14.5 µM | – | – | – | – |
| COc1ccc(-c2ccccc2[C@H]2[C@@H](C#N)N(C(=O)NC(C)C)[C@H]2CO)cc1 [BRD3029] | – | – | – | – | 12.6 µM | 1.58 µM | > 50.1 µM | – |
| CCCNC(=O)N1[C@H](C#N)[C@H](c2ccc(-c3cccc(OC)c3)cc2)[C@@H]1CO [BRD6650] | – | – | – | – | 2 µM | 0.501 µM | > 50.1 µM | – |
| CCCNC(=O)N1[C@H](C#N)[C@@H](c2ccccc2-c2ccc(OC)cc2)[C@@H]1CO [BRD2647 RRS stereoisomer] | – | – | – | – | 39.8 µM | – | – | – |
| CCCNC(=O)N1[C@H](CO)[C@@H](c2ccccc2-c2ccc(OC)cc2)[C@@H]1C#N [BRD2647 SSR stereoisomer] | – | – | – | – | – | – | – | activity in the initial HTS assay [2]: inactive |
| CC(=O)O[C@@]12CO[C@@H]1C[C@H](O)[C@@]1(C)C(=O)[C@H](O)C3=C(C)[C@@H](OC(=O)[C@H](O)[C@@H](NC(=O)OC(C)(C)C)c4ccccc4)C[C@@](O)([C@@H](OC(=O)c4ccccc4)[C@H]21)C3(C)C [Docetaxel] | – | 8.91 µM | 14.5 µM | > 34.7 µM | – | – | – | – |
| CCCNC(=O)N1[C@H](C#N)[C@H](c2ccccc2-c2ccc(OC)cc2)[C@@H]1CO [BRD2647] | – | – | – | – | 6.31 µM | 1.58 µM | > 50.1 µM | – |
| CCCNC(=O)N1[C@H](CO)[C@H](c2ccccc2-c2ccc(OC)cc2)[C@@H]1C#N [BRD2647 SRR stereoisomer] | – | – | – | – | – | – | – | activity in the initial HTS assay [2]: inactive |
| COc1ccc(-c2ccccc2[C@H]2[C@@H](C#N)N(C(=O)NC3CCCC3)[C@H]2CO)cc1 [BRD9613] | – | – | – | – | 10 µM | 1.58 µM | > 50.1 µM | – |
| CCCNC(=O)N1[C@H](C#N)[C@H](c2ccc(C#Cc3ccc(F)cc3)cc2)[C@@H]1CO [BRD1184] | – | – | – | – | 2 µM | 0.631 µM | 15.8 µM | – |
| CCCNC(=O)N1[C@H](C#N)[C@H](c2ccc(-c3cccnc3)cc2)[C@@H]1CO [BRD9157] | – | – | – | – | 1.58 µM | 12.6 µM | > 50.1 µM | – |
| CCCNC(=O)N1[C@@H](C#N)[C@@H](c2ccc(-c3cccc(OC)c3)cc2)[C@@H]1CO [BRD6650 RRR stereoisomer] | – | – | – | – | 50.1 µM | – | – | – |
